Like-named read-outs stand apart in the source and are kept apart here.
Assays:
[1] = system: weeds ABUTH, AMATA, AMBEL, CHEAL, ERICA; test: Postemergence herbicide evaluation, overall average % weed control (ABUTH, AMATA, AMBEL, CHEAL, ERICA); format: in vivo; conditions: post-emergence, read-out: Overall Ave % Weed Control
[2] = system: Ambrosia artemisiifolia (AMBEL), common ragweed; test: Postemergence herbicide evaluation, growth of Ambrosia artemisiifolia (AMBEL); format: in vivo; conditions: Ambrosia artemisiifolia, post-emergence
[3] = system: Chenopodium album (CHEAL), common lambsquarters; test: Postemergence herbicide evaluation, growth of Chenopodium album (CHEAL); format: in vivo; conditions: Chenopodium album, post-emergence
[4] = system: Abutilon theophrasti (ABUTH), velvetleaf; test: Postemergence herbicide evaluation, growth of Abutilon theophrasti (ABUTH); format: in vivo; conditions: Abutilon theophrasti, post-emergence
[5] = Volatility of compounds measured by thermogravimetric analysis (TGA); format: physicochemical
[6] = system: Amaranthus rudis (AMATA), tall water hemp; test: Postemergence herbicide evaluation, growth of Amaranthus rudis (AMATA); format: in vivo; conditions: Amaranthus tuberculatus, post-emergence
[7] = system: weeds (ABUTH, AMATA, AMBEL, CHEAL, ERICA); test: Postemergence herbicide evaluation, overall average % weed control across ABUTH, AMATA, AMBEL, CHEAL, ERICA; format: in vivo; conditions: post-emergence, average over the five weeds, read-out: Overall Ave % Weed Control; for pest or weed control at 280 g/ha: 280 g ae/ha; for pest or weed control at 560 g/ha: 560 g ae/ha
[8] = system: glyphosate resistant Conyza canadensis (L.) (ERICA), horseweed; test: Postemergence herbicide evaluation, growth of Conyza canadensis (ERICA); format: in vivo; conditions: Erigeron canadensis, post-emergence, percent reduction in plant size relative to untreated control, read-out: Ave. ERICA; for pest or weed control at 280 g/ha: 280 g ae/ha; for pest or weed control at 560 g/ha: 560 g ae/ha
[9] = 168 h, read-out: AVE. AMBEL, percent reduction in plant size relative to the untreated control
[10] = 336 h, read-out: AVE. AMBEL, percent reduction in plant size relative to the untreated control
[11] = 504 h, read-out: AVE. AMBEL, percent reduction in plant size relative to the untreated control
[12] = 168 h, read-out: Ave. CHEAL, percent reduction in plant size relative to the untreated control
[13] = 336 h, read-out: Ave. CHEAL, percent reduction in plant size relative to the untreated control
[14] = 504 h, read-out: Ave. CHEAL, percent reduction in plant size relative to the untreated control
[15] = 168 h, read-out: AVE. ABUTH, percent reduction in plant size relative to the untreated control
[16] = 336 h, read-out: AVE. ABUTH, percent reduction in plant size relative to the untreated control
[17] = 504 h, read-out: AVE. ABUTH, percent reduction in plant size relative to the untreated control
[18] = 168 h, read-out: Ave. AMATA, percent reduction in plant size relative to the untreated control
[19] = 336 h, read-out: Ave. AMATA, percent reduction in plant size relative to the untreated control
[20] = 504 h, read-out: Ave. AMATA, percent reduction in plant size relative to the untreated control

**Q.** Which pest or weed control at 280 g/ha ([1]; 168 h) does the source give for `O=C(COc1ccc(Cl)cc1Cl)OCc1ccc(COC(=O)COc2ccc(Cl)cc2Cl)cc1` [Compound B1, 1,4-Phenylenebis(methylene) bis(2-(2,4-dichlorophenoxy)acetate)] here?
**A.** 19%

**Q.** And the pest or weed control at 560 g/ha ([1]; 168 h)?
**A.** 31%

**Q.** And the pest or weed control at 280 g/ha ([1]; 336 h)?
**A.** 21%

**Q.** And the pest or weed control at 560 g/ha ([1]; 336 h)?
**A.** 29%

**Q.** And the pest or weed control at 280 g/ha ([1]; 504 h)?
**A.** 13%

**Q.** And the pest or weed control at 560 g/ha ([1]; 504 h)?
**A.** 21%

**Q.** And the pest or weed control at 280 g/ha [2, 9]?
**A.** 23%

**Q.** What about the pest or weed control at 560 g/ha [2, 9] of the same molecule?
**A.** 20%

**Q.** What about the pest or weed control at 280 g/ha [2, 10] of the same molecule?
**A.** 18%

**Q.** And the pest or weed control at 560 g/ha [2, 10]?
**A.** 18%

**Q.** And the pest or weed control at 280 g/ha [2, 11]?
**A.** 0%

**Q.** And the pest or weed control at 560 g/ha [2, 11]?
**A.** 5%

**Q.** What about the pest or weed control at 280 g/ha [3, 12] of the same molecule?
**A.** 15%

**Q.** What about the pest or weed control at 560 g/ha [3, 12] of the same molecule?
**A.** 55%

**Q.** And the pest or weed control at 280 g/ha [3, 13]?
**A.** 25%

**Q.** And the pest or weed control at 560 g/ha [3, 13]?
**A.** 53%

**Q.** What about the pest or weed control at 280 g/ha [3, 14] of the same molecule?
**A.** 20%

**Q.** What about the pest or weed control at 560 g/ha [3, 14] of the same molecule?
**A.** 33%

**Q.** What about the pest or weed control at 280 g/ha [4, 15] of the same molecule?
**A.** 5%

**Q.** And the pest or weed control at 560 g/ha [4, 15]?
**A.** 13%

**Q.** And the pest or weed control at 280 g/ha [4, 16]?
**A.** 8%

**Q.** And the pest or weed control at 560 g/ha [4, 16]?
**A.** 5%

**Q.** And the pest or weed control at 280 g/ha [4, 17]?
**A.** 8%

**Q.** What about the pest or weed control at 560 g/ha [4, 17] of the same molecule?
**A.** 3%

**Q.** What about the “TGA Data (rate of weight loss, volatility)” value [5] of the same molecule?
**A.** 0.03 µg/min

**Q.** What about the pest or weed control at 280 g/ha [6, 18] of the same molecule?
**A.** 40%

**Q.** What about the pest or weed control at 560 g/ha [6, 18] of the same molecule?
**A.** 40%

**Q.** What about the pest or weed control at 280 g/ha [6, 19] of the same molecule?
**A.** 25%

**Q.** What about the pest or weed control at 560 g/ha [6, 19] of the same molecule?
**A.** 35%

**Q.** What about the pest or weed control at 280 g/ha [6, 20] of the same molecule?
**A.** 30%

**Q.** And the pest or weed control at 560 g/ha [6, 20]?
**A.** 48%

**Q.** What does the source list for `O=C(COc1ccc(Cl)cc1Cl)OCCOCCOC(=O)COc1ccc(Cl)cc1Cl` [Compound B2, Oxybis(ethane-2,1-diyl) bis(2-(2,4-dichlorophenoxy)acetate)]?
**A.** pest or weed control at 280 g/ha ([1]; 168 h): 73%; pest or weed control at 560 g/ha ([1]; 168 h): 75%; pest or weed control at 280 g/ha ([1]; 336 h): 83%; pest or weed control at 560 g/ha ([1]; 336 h): 89%; pest or weed control at 560 g/ha ([1]; 504 h): 94%; TGA Data (rate of weight loss, volatility) [5]: 0.04 µg/min

**Q.** Which results are given for `Cn1c(O)c(C(=O)COc2ccc(Cl)cc2Cl)c2ccccc21` [Compound C1, 2-(2,4-Dichlorophenoxy)-1-(2-hydroxy-1-methyl-1H-indol-3-yl)ethanone]?
**A.** pest or weed control at 280 g/ha ([7]; 168 h, 7 DAA): 61%; pest or weed control at 560 g/ha ([7]; 168 h, 7 DAA): 0%; pest or weed control at 280 g/ha ([7]; 336 h, 14 DAA): 72%; pest or weed control at 560 g/ha ([7]; 336 h, 14 DAA): 0%; pest or weed control at 280 g/ha ([7]; 504 h, 21 DAA): 72%; pest or weed control at 560 g/ha ([7]; 504 h, 21 DAA): 0%; pest or weed control at 280 g/ha ([2]; 168 h, 280 g ae/ha, 7 DAA, percent reduction in plant size relative to untreated control, read-out: AVE. AMBEL): 48%; pest or weed control at 560 g/ha ([2]; 168 h, 560 g ae/ha, 7 DAA, percent reduction in plant size relative to untreated control, read-out: AVE. AMBEL): 0%; pest or weed control at 280 g/ha ([2]; 336 h, 280 g ae/ha, 14 DAA, percent reduction in plant size relative to untreated control, read-out: AVE. AMBEL): 65%; pest or weed control at 560 g/ha ([2]; 336 h, 560 g ae/ha, 14 DAA, percent reduction in plant size relative to untreated control, read-out: AVE. AMBEL): 0%; pest or weed control at 280 g/ha ([2]; 504 h, 280 g ae/ha, 21 DAA, percent reduction in plant size relative to untreated control, read-out: AVE. AMBEL): 65%; pest or weed control at 560 g/ha ([2]; 504 h, 560 g ae/ha, 21 DAA, percent reduction in plant size relative to untreated control, read-out: AVE. AMBEL): 0%; pest or weed control at 280 g/ha ([3]; 168 h, 280 g ae/ha, 7 DAA, percent reduction in plant size relative to untreated control, read-out: Ave. CHEAL): 68%; pest or weed control at 560 g/ha ([3]; 168 h, 560 g ae/ha, 7 DAA, percent reduction in plant size relative to untreated control, read-out: Ave. CHEAL): 0%; pest or weed control at 280 g/ha ([3]; 336 h, 280 g ae/ha, 14 DAA, percent reduction in plant size relative to untreated control, read-out: Ave. CHEAL): 78%; pest or weed control at 560 g/ha ([3]; 336 h, 560 g ae/ha, 14 DAA, percent reduction in plant size relative to untreated control, read-out: Ave. CHEAL): 0%; pest or weed control at 280 g/ha ([3]; 504 h, 280 g ae/ha, 21 DAA, percent reduction in plant size relative to untreated control, read-out: Ave. CHEAL): 77%; pest or weed control at 560 g/ha ([3]; 504 h, 560 g ae/ha, 21 DAA, percent reduction in plant size relative to untreated control, read-out: Ave. CHEAL): 0%; pest or weed control at 280 g/ha ([4]; 168 h, 280 g ae/ha, 7 DAA, percent reduction in plant size relative to untreated control, read-out: AVE. ABUTH): 68%; pest or weed control at 560 g/ha ([4]; 168 h, 560 g ae/ha, 7 DAA, percent reduction in plant size relative to untreated control, read-out: AVE. ABUTH): 0%; pest or weed control at 280 g/ha ([4]; 336 h, 280 g ae/ha, 14 DAA, percent reduction in plant size relative to untreated control, read-out: AVE. ABUTH): 63%; pest or weed control at 560 g/ha ([4]; 336 h, 560 g ae/ha, 14 DAA, percent reduction in plant size relative to untreated control, read-out: AVE. ABUTH): 0%; pest or weed control at 280 g/ha ([4]; 504 h, 280 g ae/ha, 21 DAA, percent reduction in plant size relative to untreated control, read-out: AVE. ABUTH): 63%; pest or weed control at 560 g/ha ([4]; 504 h, 560 g ae/ha, 21 DAA, percent reduction in plant size relative to untreated control, read-out: AVE. ABUTH): 0%; TGA Data (rate of weight loss, volatility) [5]: 0.7 µg/min; pest or weed control at 280 g/ha ([6]; 168 h, 280 g ae/ha, 7 DAA, percent reduction in plant size relative to untreated control, read-out: Ave. AMATA): 63%; pest or weed control at 560 g/ha ([6]; 168 h, 560 g ae/ha, 7 DAA, percent reduction in plant size relative to untreated control, read-out: Ave. AMATA): 0%; pest or weed control at 280 g/ha ([6]; 336 h, 280 g ae/ha, 14 DAA, percent reduction in plant size relative to untreated control, read-out: Ave. AMATA): 70%; pest or weed control at 560 g/ha ([6]; 336 h, 560 g ae/ha, 14 DAA, percent reduction in plant size relative to untreated control, read-out: Ave. AMATA): 0%; pest or weed control at 280 g/ha ([6]; 504 h, 280 g ae/ha, 21 DAA, percent reduction in plant size relative to untreated control, read-out: Ave. AMATA): 68%; pest or weed control at 560 g/ha ([6]; 504 h, 560 g ae/ha, 21 DAA, percent reduction in plant size relative to untreated control, read-out: Ave. AMATA): 0%; pest or weed control at 280 g/ha ([8]; 168 h, 7 DAA): 60%; pest or weed control at 560 g/ha ([8]; 168 h, 7 DAA): 0%; pest or weed control at 280 g/ha ([8]; 336 h, 14 DAA): 85%; pest or weed control at 560 g/ha ([8]; 336 h, 14 DAA): 0%; pest or weed control at 280 g/ha ([8]; 504 h, 21 DAA): 90%; pest or weed control at 560 g/ha ([8]; 504 h, 21 DAA): 0%
